Reference: ChEMBL document CHEMBL4665709, “Rational Avoidance of Protease Cleavage Sites and Symmetrical End-Tagging Significantly Enhances the Stability and Therapeutic Potential of Antimicrobial Peptides” (J Med Chem, 2020)
The source made the active and inactive calls. The rule behind the calls is not given here. Where a SMILES comes first, the peptide text is derived from it.

Tests used:
Escherichia coli [1] = assay: Antibacterial activity against Escherichia coli ATCC 25922 infected in C57BL/6 mouse assessed as reduction in lesion in liver at 10 mg/kg, ip measured after 11 hrs by hematoxylin and eosin staining based assay; assay type: functional, organism-based
Staphylococcus aureus = assay: Antibacterial activity against Staphylococcus aureus ATCC 29213 after 18 to 24 hrs in presence of 100% human serum by CLSI-based broth microdilution method; assay type: functional; conditions: time hrs 18-24
Escherichia coli [2] = assay: Antibacterial activity against Escherichia coli ATCC 25922 after 18 to 24 hrs in presence of 50% human serum by CLSI-based broth microdilution method; assay type: functional; conditions: time hrs 18-24

With `CC[C@H](C)[C@H](N)C(=O)N[C@H](C(=O)N[C@H](C(=O)N[C@@H](CS)C(=O)N[C@@H](CCCNC(=N)N)C(=O)N[C@@H](CCCCN)C(=O)N1CCC[C@H]1C(=O)N[C@H](C(=O)N[C@H](C(=O)N[C@@H](CS)C(=O)N[C@@H](CCCNC(=N)N)C(=O)N[C@@H](CCCCN)C(=O)N1CCC[C@H]1C(=O)N[C@H](C(=O)N[C@H](C(=O)N[C@@H](CS)C(=O)N[C@@H](CCCNC(=N)N)C(=O)N[C@@H](CCCCN)C(=O)N1CCC[C@H]1C(=O)N[C@H](C(=O)N[C@H](C(=O)N[C@@H](CS)C(=O)N[C@@H](CCCNC(=N)N)C(=O)N[C@@H](CCCCN)C(=O)N1CCC[C@H]1C(=O)N[C@H](C(=O)N[C@H](C(=O)N[C@H](C(N)=O)[C@@H](C)CC)[C@@H](C)CC)[C@@H](C)CC)[C@@H](C)CC)[C@@H](C)CC)[C@@H](C)CC)[C@@H](C)CC)[C@@H](C)CC)[C@@H](C)CC)[C@@H](C)CC)[C@@H](C)CC` (H-IIICRKPIICRKPIICRKPIICRKPIII-NH2) the Activity (Escherichia coli [1]) was “Active”, the MIC (Staphylococcus aureus) was 32 µM and the MIC (Escherichia coli [2]) was 4 µM.
